Assay results taken from US20250152504A1, “INTRAUTERINE SYSTEMS COMPRISING ANTI-INFECTIVES FOR STEADY-STATE ACCUMULATION TO DISTAL EXTRAUTERINE TISSUE” (priority 2023, published 2025).
Read-outs that look alike come from different tables or passages of the source.

How the values were obtained:
[1] = Post-use assay of residual ARVs in removed IUDs (triple study); type: in vivo; details: for Average dose / Total DPV released: 28 days
Text: FIGS. 15A-15C are graphs showing post-use assays of residual anti-retroviral pharmaceutical compositions in removed intrauterine devices, in accordance with the present technology. […]

[2] = Triple active compound (RAL, MVC, ETR) intrauterine system in vivo study, tissue and secretion concentrations; details: for concentration at 28 days: 28 days after insertion
Text: Described herein is a study conducted on an intrauterine system having a plurality of delivery systems (such as shown in FIGS. 1D and 1E). This study included three matrix delivery systems. The first delivery system included raltegravir (RAL), the second delivery system included etravirine (ETR), and the third delivery system included maraviroc (MVC). The intrauterine system was implanted and retained in the uterus of a patient for 28 days.
Multiple samples were taken before, during, and after insertion of the intrauterine system. Plasma samples were taken an hour before insertion, at insertion, 24 hours after insertion, 48 hours after insertion, 72 hours after insertion, 7 days after insertion, 14 days after insertion, 21 days after insertion, and 28 days after insertion (when the intrauterine system was removed). Vaginal swabs were taken an hour before insertion, at 7 days after insertion, 14 days after insertion, 21 days after insertion, and 28 days after insertion. Vaginal biopsies were taken an hour before insertion, 7 days after insertion, and 28 days after insertion. Endometrial and cervical biopsies were taken an hour before insertion and 28 days after insertion. Histology was also performed an hour before insertion, and consistent visual inspection was done throughout for safety.

[3] = In vitro drug release from TPU matrix delivery system prototypes; type: physicochemical; details: for cumulative release of loaded drug: after 30 days
Protocol: Films were cut into disks with a 1-inch diameter die punch; disks were stacked and placed between two pieces of aluminum foil and compressed under a metal weight on a 120° C. dry bath. Thickness was monitored frequently until it measured 3.5 mm with digital calipers calibrated to 0.01 mm. Devices were cut from thick films using a custom rectangular 3.5 mm×13.3 mm die punch.
All release tests were performed in sink conditions in PBS supplemented with 2% w/v Cremophor® A25/Emulgin® B25. For the first 7-days of drug release testing, 1 mL samples were taken daily; following 7 days, samples were taken every 3-4 days. At all timepoints, bottles were drained and replaced with fresh media following sampling.
A qualification for selecting an optimal TPU for DPV delivery in this application is the time to achieve 50% cumulative release of drug. This is based on the standard use time of hormonal IUDs, which in practice are removed once about half of the initial load of drug is depleted from the device. Here, this standard was used as a benchmark to evaluate the sustained release properties of candidate delivery system designs. […] The fit of first-order release kinetics to the data was assessed. Equations 1 and 2 describe drug release from a system where dissolution is dependent on a concentration gradient.
Where k is the first order rate constant, Ct is the concentration of drug in solution at time t and C0 is the initial concentration of drug.
Where Q is the amount of drug release in time t and kh is the Higuchi release constant.
Based on the best-fit square-root of time relation, T50% was calculated for each TPU. […] Korsmeyer and Peppas provided a method for understanding drug release mechanisms of swelling and non-swelling polymeric systems, given by Equation 4: […]
Where Mt/M∝ is the fraction of drug released at time t, K is the rate constant, and n is the release exponent.

[4] = In vitro drug release from core-sheath reservoir delivery system prototypes; type: physicochemical; details: 6 core-sheath reservoir prototypes, core TPU loaded at 1 wt %, three sheath polymers, 100 and 200 μm sheath thickness
Protocol: Reservoir delivery system prototypes were prepared using a heated coextrusion process. Briefly, core polymer (PY-PT43DE20) was melted and homogenized with the appropriate mass of dapivirine to achieve 1 wt % and 30 wt % core polymer loading. […] The inner crosshead diameter was varied mid-extrusion to generate devices with sheath thicknesses ranging from 100-200 μm while retaining a constant outer diameter. Material was cut to the desired length per device (13.33 mm) and in-spec devices were identified based on sheath thickness using brightfield microscopy. Devices were incubated for two weeks at 40° C. to equilibrate drug in the core and sheath compartments.
All release tests were performed in sink conditions in PBS supplemented with 2% w/v Cremophor® A25/Emulgin® B25. For the first 7-days of drug release testing, 1 mL samples were taken daily; following 7 days, samples were taken every 3-4 days. At all timepoints, bottles were drained and replaced with fresh media following sampling. For reservoir delivery system prototypes, three replicates of each formulation were end capped and one device was tested with no end cap to confirm the integrity of the end cap in preventing uncontrolled diffusion form the exposed core.
Both polyether sheath reservoirs (R1 & R2) released DPV faster than polycarbonate sheath reservoirs (R3 & R4). […]

[5] = 1 wt % loading, TPU2 matrix, from best-fit release model
[6] = 1 wt % loading, TPU3 matrix, from best-fit release model
[7] = 1 wt % loading, TPU4 matrix, from best-fit release model
[8] = 1 wt %, TPU4 matrix, total by 30 days
[9] = 16.6 wt % loading, TPU4 matrix, from best-fit release model
[10] = 16.6 wt %, TPU4 matrix, final rate at 30 days, per each ⅓ segment of the device
[11] = 20 wt % matrix, hydrophobic and crystalline TPU, after 20 days

Row | SMILES | T50% [1] [days] | Average dose [1] [µg/day] | Total DPV released [1] [mg] | Actual T50% ([3]; 1 wt % loading, TPU2 matrix) [days] | First-Order: k ([3]; 1 wt % loading, TPU2 matrix) | Higuchi: kH ([3]; 1 wt % loading, TPU2 matrix) | Predicted T50% [3, 5] [days] | Actual T50% ([3]; 1 wt % loading, TPU3 matrix) [days] | First-Order: k ([3]; 1 wt % loading, TPU3 matrix) | Higuchi: kH ([3]; 1 wt % loading, TPU3 matrix) | Korsmeyer-Peppas Constant: n ([3]; 1 wt % loading, TPU3 matrix) | Predicted T50% [3, 6] [days] | First-Order: k ([3]; 1 wt % loading, TPU4 matrix) | Higuchi: kH ([3]; 1 wt % loading, TPU4 matrix) | Korsmeyer-Peppas Constant: n ([3]; 1 wt % loading, TPU4 matrix) | Predicted T50% [3, 7] [days] | cumulative release [3, 8] [%] | First-Order: k ([3]; 16.6 wt % loading, TPU4 matrix) | Higuchi: kH ([3]; 16.6 wt % loading, TPU4 matrix) | Korsmeyer-Peppas Constant: n ([3]; 16.6 wt % loading, TPU4 matrix) | also measured
1 | Cc1cc(C#N)cc(C)c1Oc1nc(Nc2ccc(C#N)cc2)nc(N)c1Br [ETR, etravirine] | 300 | 15.24 | 0.43 | 13 | 0.002, h^−1 | 0.026, %/h^1/2 | 15.5 | 13 | 0.002, h^−1 | 0.030, %/h^1/2 | 0.585, | 12 | 0.0004, h^−1 | 0.011, %/h^1/2 | 0.535, | 90 | 27.70 | 0.0001, h^−1 | 0.003, %/h^1/2 | 0.599, | concentration at 28 days ([2]; female, human, endometrium, other: intrauterine (implanted intrauterine system), read-out: tissue concentration, Endometrium): 434 ng/mL; Mean concentration in vaginal secretions ([2]; in vivo): 344.30 ng/mL; Korsmeyer-Peppas Constant: n ([3]; 1 wt % loading, TPU2 matrix): 0.484,; Predicted T50% [3, 9]: 857 days; cumulative release of loaded drug ([3]; 16.6 wt %, TPU4 matrix): 8.5%; release rate [3, 10]: ~14 µg/day
2 | Cc1nnc(C(=O)NC(C)(C)c2nc(C(=O)NCc3ccc(F)cc3)c(O)c(=O)n2C)o1 [RAL, raltegravir] | 101 | 46.31 | 1.30 | <1 | 0.016, h^−1 | 0.052, %/h^1/2 | 2 | 1 | 0.004, h^−1 | 0.023, %/h^1/2 | 0.201, | 7 | 0.0004, h^−1 | 0.010, %/h^1/2 | 0.333, | 109 | 31.71 | 0.0002, h^−1 | 0.006, %/h^1/2 | 0.455, | concentration at 7 days ([2]; female, human, in vivo, 7 days after insertion, read-out: tissue concentration, Vagina): 194 ng/mL; concentration at 28 days ([2]; female, human, in vivo, read-out: tissue concentration, Cervix): 237 ng/mL; concentration at 28 days ([2]; female, human, in vivo, read-out: tissue concentration, Endometrium): 237 ng/mL; concentration at 28 days ([2]; female, human, in vivo, read-out: tissue concentration, Rectum): 39.9 ng/mL; concentration at 28 days ([2]; female, human, in vivo, read-out: tissue concentration, Vagina): 253 ng/mL; time to reach 100% release ([3]; 1 wt %, TPU2 matrix): 7 days; cumulative release of encapsulated drug ([3]; 1 wt %, TPU2 matrix, first 24 hours): approximately 50%; cumulative release of encapsulated drug ([3]; 1 wt %, TPU3 matrix, by 30 days / one month): 100%; cumulative release of encapsulated drug ([3]; 1 wt %, TPU3 matrix, first 24 hours): approximately 50%; Predicted T50% [3, 9]: 251 days; cumulative release of loaded drug ([3]; 16.6 wt %, TPU4 matrix): approximately 18%; release rate [3, 10]: around 22 μg/day; First-Order: k ([3]; 30 wt % loading, TPU4 matrix): 0.0002, h^−1; Higuchi: kH ([3]; 30 wt % loading, TPU4 matrix): 0.005, %/h^1/2; Predicted T50% ([3]; 30 wt % loading, TPU4 matrix, from best-fit release model): 363 days; cumulative release of encapsulated drug ([3]; 30 wt %, TPU4 matrix, at 30 days): approximately 17%; release rate ([3]; 30 wt %, TPU4 matrix, at study terminus (30 days), per each ⅓ segment of the device): 41.13 µg/day
3 | Nc1nc2c(ncn2COCCO)c(=O)[nH]1 [ACV, acyclovir] |  |  |  |  |  |  |  |  |  |  |  |  |  |  |  |  |  |  |  |  | minimum release rate ([3]; 20 wt % in TPU4 matrix, 15 days in vitro dissolution): 59 µg/day; cumulative release ([3]; 20 wt % in TPU4 matrix, after 15 days): 18%; Predicted T50% ([3]; 20 wt % in TPU4 matrix, best-fit in vitro release model): 156 days; maximum release ([3]; High saturation matrixes): 1112 micrograms per day; minimum release ([3]; High saturation matrixes): 109 micrograms per day
4 | Cc1nc(N(C)C(=O)Cc2ccc(-c3ccccn3)cc2)sc1S(N)(=O)=O [PTV, pritelivir] |  |  |  |  |  |  |  |  |  |  |  |  |  |  |  |  |  |  |  |  | daily release [4]: 1 to 40 µg/day; time for half of the original dose to release ([3]; 20 wt % matrix, Higuchi release kinetic analysis): approximately 500 days; cumulative release [3, 11]: approximately 9%; release rate [3, 11]: 30 µg/day; duration of use of the device ([3]; matrix device loaded with 20-30 mg of PTV, tested in vitro for 480 hours): 3-4 years
